The text below walks through data of ChEMBL document CHEMBL1201862, “PubChem BioAssay data set” (2004).

Assay in all cases: inhibition of tumour cell growth, NCI panel, 48 h
Assay [1] deals with HCT-116.
Assay [2] concerns M14.
The test system of assay [3] is SK-MEL-5.
The subject of assay [4] is NCI-H23.
The test system of assay [5] is OVCAR-5.
Assay [6] relates to KM12.
Assay [7] deals with Malme-3M.
The subject of assay [8] is NCI-H460.
Assay [9] relates to K562.
The subject of assay [10] is SF-539.
Assay [11] concerns SF-295.
Assay [12] relates to HCT-15.
For assay [13], the system named is HOP-92.
For assay [14], the system named is MDA-MB-231.
The subject of assay [15] is COLO 205.
Assay [16] concerns SK-MEL-28.
Assay [17] has as its system BT-549.
Assay [18] deals with HCC 2998.
The subject of assay [19] is 786-0.

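All cell lines were grown in 96-well plates and treated with compound for 48 hours. GI50 marks 50% less growth.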 The source made the active and inactive calls. Cut-off read from the data, not from the text of the source: active = GI50 up to about 1.1 µM and inactive = higher.

Turning to `N=C(N)SCc1ccc(Cl)c2ccccc12.O=[N+]([O-])c1ccc(O)c([N+](=O)[O-])c1`, the GI50 was 13.4 µM (inactive) in assay [1]; 13 µM (inactive) in assay [2]; 8.61 µM (inactive) in assay [3]; 12.6 µM (inactive) in [4]; 13.5 µM (inactive) in [5]; 12.3 µM (inactive) in assay [6]. Also, the GI50 is 10 µM (inactive) in assay [7]; 7.55 µM (inactive) in assay [8]; 0.421 µM (active) in assay [9]; 5.2 µM (inactive) in [10]; 9.91 µM (inactive) in [11]; 14.5 µM in assay [12]. Moreover, the GI50 in [13] was 6.67 µM (inactive); in assay [14], 12.7 µM (inactive); in [15], 6.81 µM (inactive); in assay [16] it was 12.6 µM (inactive); in assay [17] it was 15.6 µM (inactive); in assay [18], 2.04 µM (inactive). In assay [19], the GI50 is 12.4 µM (inactive).
As to `CCOC(=O)C(c1c[nH]c2ccccc12)(c1c[nH]c2ccccc12)c1c[nH]c2ccccc12`, the GI50 in assay [1] was 29.2 µM (inactive); in assay [2] it was 28.3 µM (inactive); in assay [3], 34.4 µM (inactive); in assay [4] it was 70.8 µM (inactive); in assay [5] it was 55 µM (inactive); in assay [6], 28.5 µM (inactive). Moreover, the GI50 in assay [7] is 30.4 µM (inactive); in assay [8], 27.3 µM (inactive); in assay [9], 12.9 µM (inactive); in assay [10], 42.4 µM (inactive); in assay [11], 30.4 µM (inactive); in [12], 34.7 µM. The GI50 was 37 µM (inactive) in assay [13]; 36.8 µM (inactive) in [14]; 15.7 µM (inactive) in assay [15]; 33.7 µM (inactive) in assay [16]; 44.4 µM (inactive) in [17]; 17.1 µM (inactive) in assay [18]. Further, in assay [19], the GI50 is 44.5 µM (inactive).
On to `N#Cc1nc(COCCOCc2ccccc2)oc1N`, for which the GI50 in [1], in assay [2], in assay [3], in assay [4], in assay [5] and in [6] was > 100 µM (inactive) each time. In addition, the GI50 in assay [7] is > 100 µM (inactive); in assay [8], > 100 µM (inactive); in assay [9], > 100 µM (inactive); in assay [10], > 100 µM (inactive); in assay [11], > 100 µM (inactive); in [12], greater than 100 µM. In addition, the GI50 in assay [13] was > 100 µM (inactive); in [14], > 100 µM (inactive); in assay [15] it was > 100 µM (inactive); in [16], > 100 µM (inactive); in assay [17] it was 88.9 µM (inactive); in assay [18], > 100 µM (inactive). Moreover, in [19], the GI50 was > 100 µM (inactive).
`CC(C)SC(=S)Sc1c(Cl)c(Cl)nc(Cl)c1Cl`: the GI50 in assay [1] was 10.5 µM (inactive); in [2], 12.4 µM (inactive); in assay [3] it was 14.8 µM (inactive); in assay [4] it was 12.3 µM (inactive); in [5], 16.3 µM (inactive); in [6], 8.24 µM (inactive). The GI50 is 15.7 µM (inactive) in [7]; 17.1 µM (inactive) in assay [8]; 2.97 µM (inactive) in assay [9]; 10.9 µM (inactive) in [10]; 16.3 µM (inactive) in [11]; 2.97 µM in assay [12]. Also, the GI50 was 7.69 µM (inactive) in assay [13]; 12.7 µM (inactive) in assay [14]; 8.55 µM (inactive) in assay [15]; 18.7 µM (inactive) in assay [16]; 15.3 µM (inactive) in assay [17]; 3.31 µM (inactive) in assay [18]. For the same compound, the GI50 in assay [19] was 2.33 µM (inactive).
For the compound `CC(C)(C)OC(=O)[C@@H]1CCC(=O)N1C1(c2ccccc2)c2ccccc2-c2ccccc21`, the GI50 was 37.8 µM (inactive) in assay [1]; 50.4 µM (inactive) in assay [2]; 23.9 µM (inactive) in assay [3]; 62.4 µM (inactive) in assay [4]; 93.1 µM (inactive) in assay [5]; 43.3 µM (inactive) in assay [6]. Also, the GI50 is 33.3 µM (inactive) in [7]; 30.5 µM (inactive) in assay [8]; 41 µM (inactive) in assay [9]; 17.1 µM (inactive) in assay [10]; 19.1 µM (inactive) in [11]; 55.5 µM in assay [12]. Also, the GI50 in [13] was 26.3 µM (inactive); in [14] it was 16.4 µM (inactive); in assay [15], 21.4 µM (inactive); in assay [16], 28.6 µM (inactive); in assay [17], > 100 µM (inactive); in assay [18], 52.8 µM (inactive). For the same compound, the GI50 in [19] is 38.8 µM (inactive).
In the case of `c1ccc2c(c1)CN1CCCC1CN2` (stereo unspecified), the GI50 in assay [1], in [2], in assay [3], in assay [4], in assay [5] and in [6] was > 100 µM (inactive) in each case. For the same compound, the GI50 in [7] is > 100 µM (inactive); in [8], > 100 µM (inactive); in assay [9] it was > 100 µM (inactive); in assay [10], > 100 µM (inactive); in assay [11], > 100 µM (inactive); in [12], greater than 100 µM. In addition, the GI50 in [13], in assay [14], in [15], in assay [16], in [17] and in assay [18] was > 100 µM (inactive) in each case. Further, in [19], the GI50 is > 100 µM (inactive).
In the case of `Cc1cccc(NC(=S)NNC(=O)c2cc(-c3ccccc3)nc3ccccc23)c1`, the GI50 in [1] was 20.8 µM (inactive); in [2] it was 35 µM (inactive); in [3] it was 19.9 µM (inactive); in [4], 27.9 µM (inactive); in assay [5] it was 35.5 µM (inactive); in [6], 31.8 µM (inactive). Also, the GI50 in assay [7] was 25 µM (inactive); in assay [8], 30.9 µM (inactive); in assay [9] it was 41.5 µM (inactive); in assay [10], 21.8 µM (inactive); in [12] it was 36.7 µM; in assay [13], 26.2 µM (inactive). The GI50 is 27.9 µM (inactive) in assay [14]; 19.5 µM (inactive) in assay [15]; 38.4 µM (inactive) in assay [16]; 47.9 µM (inactive) in assay [17]; 25.1 µM (inactive) in [18]; 29.7 µM (inactive) in assay [19].
`O=C(C1OC1c1ccc(Cl)cc1)C12CC3CC(CC(C3)C1)C2` (stereo unspecified): the GI50 was 12.4 µM (inactive) in assay [1]; 17.8 µM (inactive) in assay [2]; 14.5 µM (inactive) in assay [3]; 14.4 µM (inactive) in [4]; 24.2 µM (inactive) in assay [5]; 18.8 µM (inactive) in [6]. For the same compound, the GI50 in [7] was 22.4 µM (inactive); in assay [8], 14.9 µM (inactive); in assay [9], 25.1 µM (inactive); in [10] it was 17.3 µM (inactive); in assay [11] it was 18.2 µM (inactive); in assay [12], 20.1 µM. Besides, the GI50 was 16.9 µM (inactive) in assay [13]; 23.6 µM (inactive) in [14]; 19.5 µM (inactive) in assay [15]; 16.5 µM (inactive) in assay [16]; 19.9 µM (inactive) in assay [17]; 19.1 µM (inactive) in assay [18]. Further, the GI50 in assay [19] is 16.3 µM (inactive).
As to `CC1=C(/C=C/C(=O)O)C(C)(C)CCC1`, the GI50 in assay [1], in [2], in assay [3], in assay [4], in [5] and in assay [7] was > 100 µM (inactive) throughout. Also, the GI50 in [8] was > 100 µM (inactive); in assay [9], > 100 µM (inactive); in assay [10], > 100 µM (inactive); in assay [11] it was > 100 µM (inactive); in assay [12], greater than 100 µM; in assay [13] it was > 100 µM (inactive). The GI50 in assay [14], in assay [15], in assay [16], in assay [17], in assay [18] and in [19] was > 100 µM (inactive) each time.
As to `Cc1ccc(NC(=O)c2cc(S(=O)(=O)Nc3nc4cccnc4[nH]3)c(SSc3cc(Cl)c(C(=O)Nc4ccc(C)cc4)cc3S(=O)(=O)Nc3nc4cccnc4[nH]3)cc2Cl)cc1`, the GI50 in assay [1], in assay [2], in [3], in assay [4], in [5] and in assay [6] was > 100 µM (inactive) in each case. Moreover, the GI50 was > 100 µM (inactive) in [7]; > 100 µM (inactive) in assay [8]; > 100 µM (inactive) in assay [9]; > 100 µM (inactive) in [10]; > 100 µM (inactive) in assay [11]; greater than 100 µM in assay [12]. Besides, the GI50 in assay [13], in assay [14], in [15], in assay [16], in assay [17] and in [18] was > 100 µM (inactive) throughout. Further, the GI50 in assay [19] was > 100 µM (inactive).
Consider `Cc1c(-c2ccccc2)c(C#N)c2nnn(-c3ccc([N+](=O)[O-])cc3)c(=O)n12`, for which the GI50 in assay [1] is 24.5 µM (inactive); in assay [3], 33 µM (inactive); in assay [4] it was 21.3 µM (inactive); in assay [5] it was 27.4 µM (inactive); in assay [6], 12.7 µM (inactive); in assay [7], 24.2 µM (inactive). Moreover, the GI50 is 22.5 µM (inactive) in assay [8]; 20.5 µM (inactive) in assay [9]; 10.1 µM (inactive) in assay [10]; 18.7 µM (inactive) in assay [11]; 20.7 µM in assay [12]; 16.5 µM (inactive) in assay [13]. For the same compound, the GI50 is 8.15 µM (inactive) in assay [14]; 7.35 µM (inactive) in [15]; 32.6 µM (inactive) in assay [16]; 26.9 µM (inactive) in [17]; 26.6 µM (inactive) in assay [18]; 5.14 µM (inactive) in [19].
